Reference: PubChem BioAssay (NCI)
“And” between values parts separate entries of the source, which are not always exact repeats. Equal entries are not always repeated.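 These data come from cells grown in 96-well plates and exposed to compound for 48 hours at five concentrations. GI50: concentration for 50% inhibition of growth. The concentration for full growth arrest is given as TGI.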

Tests used:
Experiment in all cases: inhibition of tumour cell growth, NCI panel, 48 h
[1] = system: HOP-62 NSCLC
[2] = system: MALME-3M melanoma
[3] = system: PC-3 prostate
[4] = system: SK-OV-3 ovarian
[5] = system: NCI-H226 lung
[6] = system: SNB-75 CNS
[7] = system: M14 melanoma
[8] = system: RXF 393 renal
[9] = system: BT-549 breast
[10] = system: SW-620 colon

| SMILES | GI50 [1] [µM] | TGI [1] | GI50 [2] [µM] | TGI [2] | GI50 [3] | TGI [3] [µM] | GI50 [4] [µM] | TGI [4] [µM] | GI50 [5] [µM] | TGI [5] | GI50 [6] [µM] | TGI [6] [µM] | GI50 [7] [µM] | TGI [7] [µM] | GI50 [8] [µM] | TGI [8] [µM] | GI50 [9] [µM] | TGI [9] [µM] | GI50 [10] [µM] | TGI [10] [µM] |
| --- | --- | --- | --- | --- | --- | --- | --- | --- | --- | --- | --- | --- | --- | --- | --- | --- | --- | --- | --- | --- |
| Oc1[nH]c2ccc(Cl)cc2c1/C=c1/ccc2c(c1)N=C(c1cc(F)cc(F)c1)N=2 | 3.77 | 45 µM | 57.5 | > 100 µM | 3.44 µM | > 100 | 31.9 | > 100 | > 100 | > 100 µM | 2.06 | 7.13 | 2.18 | 5.66 | 3.37 | 9.88 | 2.09 | 7.59 | – | – |
| C[C@@H](Oc1cc(-c2cnn(C3CC4(CCCNC4)C3)c2)cnc1N)c1c(Cl)ccc(F)c1Cl (stereo partly specified) | 1.21 | 4.92 µM | 1.3 | 3.12 µM | 1.25 µM | 6.83 | 2.61 | 6.96 | 2.29 | 9.76 µM | 1.64 | 3.96 | 1.25 | 2.66 | 1.28 | 2.62 | 1.95 | 3.72 | 0.597 | 2.36 |
| N#CC[C@H](C1CCCC1)n1cc(-c2ncnc3[nH]ccc23)cn1 | 17.2 | > 100 µM | 34.1 | > 100 µM | 35.2 µM | > 100 | 24.7 | > 88 | 9.28 | > 92.5 µM | 3.3 | > 61.8 | 30.3 | > 88.6 | 4.06 | 27.2 | 12.8 | 36 | 12.5 | > 96.6 |
| CCN1C(=O)N(CC)C2C1NN=c1s/c(=C\c3ccccc3)c(=O)n12 (stereo unspecified) | 0.377 | > 100 µM | 1.09 | > 100 µM | 0.157 µM | > 100 | 0.311 | > 100 | 27.6 | > 100 µM | 0.0487 | – | 0.104 | > 100 | 0.0748 | > 100 | 0.199 | > 100 | 0.0808 | > 100 |
| CC(C)N(C[C@H]1O[C@@H](n2cnc3c(N)ncnc32)[C@H](O)[C@@H]1O)C1CC(CCc2nc3ccc(C(C)(C)C)cc3[nH]2)C1 (stereo partly specified) | > 100 | > 100 µM | 20 | > 60.8 µM | 97.9 µM | > 100 | > 100 | > 100 | > 100 | > 100 µM | 24.9 | > 100 | > 72.2 | > 100 | 21.2 | > 100 | > 60.5 | > 100 | > 100 | > 100 |
| CCOC(=O)C(Cc1ccc(OC)cc1)C(=O)OCC | 9.51 | 22.6 µM | 9.94 | 28 µM | 5.08 µM | 32.4 | 10.7 | 55.8 | 12.4 | 30.3 µM | 2.72 | 9.35 | 8.17 | 20.7 | 2.61 | 7.02 | 3.25 | 13.5 | – | – |
| Cc1c(N2C(=O)/C(=C\c3ccc(N(C)C)cc3)N=C2c2ccccc2)c(=O)n(-c2ccccc2)n1C | > 100 | > 100 µM | > 100 | > 100 µM | 29.7 µM | > 100 | > 100 | > 100 | 72.2 | > 100 µM | 60.2 | > 100 | > 100 | > 100 | > 100 | > 100 | 63.7 | > 100 | > 100 | > 100 |
| Nc1cccc2nsnc12 | – | > 100 µM | – | > 100 µM | – | > 100 | – | > 100 | – | > 100 µM | – | > 100 | – | > 100 | – | > 100 | – | > 100 | – | > 100 |
| CN1CCN(c2ccc3nc4c(nc3c2C(F)(F)F)C(=O)c2ncccc2C4=O)CC1 | 1.07 | 2.92 µM | 1.06 | 2.24 µM | 1.44 µM | 11.5 | 1.98 | 4.98 | 2.13 | 4.74 µM | 1.11 | 2.32 | 1.32 | 2.86 | 1.46 | 3.15 | 1.58 | 3.07 | 1.42 | 3.52 |
| CC[C@H](C)[C@H](NC(=O)C12CC(NC(C)=O)(C1)C2)C(=O)N(C)[C@H](C[C@@H](OC(C)=O)c1nc(C(=O)N[C@@H](Cc2ccccc2)C[C@H](C)C(=O)OC)cs1)C(C)C | 0.473 | > 10.4 µM | – | > 16.7 µM | 0.194 µM | > 16.7 | 0.394 | > 10.9 | > 7.53 | > 16.7 µM | 0.123 | > 16.7 | 0.13 | 1.88 | 0.359 | > 16.7 | 0.0824 | 3.41 | 0.0854 | > 16.7 |
| O=C(Nc1ccc(S(=O)(=O)NC2CCCCCC2)cc1)C(c1ccccc1)S(=O)(=O)c1ccc(F)cc1 (stereo unspecified) | 0.97 | 3.86 µM | 0.25 | 1.81 µM | 0.295 µM | 2.19 | 0.335 | 4.03 | 0.39 | 3.43 µM | 0.508 | 2.17 | 0.514 | 2.55 | 0.217 | 0.562 | 0.348 | 1.61 | 0.084 | 1.98 |
| COc1ccc(NC(=O)O[C@H]2[C@H](O[C@H]3[C@@H](O)COC(O[C@H]4C[C@H]5[C@@H]6CC=C7C[C@@H](O)CC[C@]7(C)[C@H]6CC[C@]5(C)[C@H]4[C@H](C)C(=O)CCC(C)C)[C@@H]3OC(C)=O)OC[C@@H](O)[C@@H]2O)cc1 (stereo partly specified) | < 0.01 | 1.02 µM | 0.0115 | 3.25 µM | < 0.01 µM | 4.87 | 0.015 | 3.71 | 0.0725 | 17.3 µM | < 0.01 | 6.88 | < 0.01 | 0.0203 | < 0.01 | < 0.01 | < 0.01 | 11.3 | < 0.01 | 0.0664 |
| COc1ccc(-n2sc(=O)n(Cc3ccc(COC(=O)C(C)c4ccc(CC(C)C)cc4)cc3)c2=O)cc1 (stereo unspecified) | 8.84 | 21.1 µM | 1.04 | 2.3 µM | 5.63 µM | 12.8 | 28 | 50 | 11.9 | 33.2 µM | 5.95 | 12.2 | 2.6 | 9.45 | 1.27 | 3.79 | 2.91 | 9.37 | 0.9 | 1.82 |
| N#Cc1c(Oc2ccc(F)c(NC(=O)Cc3cccc(C(F)(F)F)c3)c2)ccc2nc(NC(=O)C3CC3)sc12 | 0.472 | > 100 µM | 0.0101 | 0.0476 µM | 1.56 µM | > 100 | 1.93 | > 100 | 0.838 | > 100 µM | 1.1 | > 100 | 0.0275 | 2.95 | 1.31 | 5.39 | 2.71 | > 100 | 0.585 | > 100 |
| COc1ccc(-c2cncn2-c2cc(OC)c(OC)c(OC)c2)cc1F | < 0.0365 | > 100 µM | 49 | > 100 µM | 0.0179 µM | > 100 | < 0.0486 | 57.2 | 21.5 | > 100 µM | < 0.0119 | > 100 | < 0.01 | 0.141 | < 0.0278 | – | < 0.0291 | > 71.6 | < 0.0177 | > 100 |
| C/C(=N\Nc1cccc(Cl)n1)c1ccccn1 | 0.456 | 16.9 µM | 1.78 | 8.71 µM | 0.89 µM | > 100 | 1.08 | > 43.2 | 0.978 | 6.57 µM | 2.28 | > 56.9 | 0.737 | 14.3 | 0.982 | 16.1 | 1.4 | > 71.8 | 0.614 | > 100 |
| O=C(CC1(O)C(=O)Nc2c(Cl)ccc(Cl)c21)c1ccc(C2CC2)cc1 (stereo unspecified) | 1.28 | 19.4 µM | 1.53 | 26.8 µM | 1.38 µM | 16.6 | 1.33 | 17 | 3.05 | 25.5 µM | 1.99 | 9.33 | 0.422 | 3.25 | 0.632 | 2.64 | 0.984 | 11 | 0.29 | 13 |
| CCOc1cc(/C=N\NC(=O)N/N=C/c2ccc(O)c(OCC)c2)ccc1O | – | > 100 µM | 0.973 | > 100 µM | 3.51 µM | > 100 | 1.25 | > 100 | > 100 | > 100 µM | 2.76 | > 100 | 1.63 | > 100 | 1.76 | 7.19 | 24.5 | > 100 | 0.959 | > 100 |
| O=C(NO)c1cnc(N2CCN(S(=O)(=O)c3ccc4ccccc4c3)CC2)nc1 | 0.104 | 5.49 µM | 0.0224 | 12.6 µM | 0.078 µM | > 36 | 0.147 | 2.33 | 0.157 | 2.55 µM | 0.0265 | 10.8 | 0.0468 | 5.75 | 0.0399 | 0.208 | 0.803 | 53.4 | 0.0349 | – |
| CCc1ccccc1-n1c(N)c(C#N)c(-c2ccc(OC)c(OC)c2)c(C#N)c1=O | 17.1 | 34.3 µM | 17.4 | 40.4 µM | 15.4 µM | 32.8 | 17.7 | 36.6 | 17.1 | 41.8 µM | 17.8 | 32.1 | 19.7 | 56 | 16.3 | 35.3 | 19.4 | 49.5 | 33.3 | > 100 |
| CS(=O)(=O)c1nc(Cl)c(Cl)c(C#N)c1Cl | – | 35.6 µM | – | 4.45 µM | – | 11.6 | – | 10.7 | – | 24.6 µM | – | 26.9 | – | 3.64 | – | 3.07 | – | 3.37 | – | 3.13 |
| CC[C@@]1(OC(=O)CN)C(=O)OCc2c1cc1n(c2=O)Cc2cc3c(N)c4c(cc3nc2-1)OCO4 | < 0.0001 | 0.205 µM and 0.25 µM | 0.0124 | 0.889 µM and 0.221 µM | 0.0361 µM and 0.0322 µM | > 100 | 0.00015 | 0.148 | < 0.0001 | 0.109 µM and 0.0279 µM | 0.000442 | 0.824 | < 0.0001 | 0.0139 | 0.00466 | 0.158 | 0.24 | – | 0.00243 | > 100 |
| C=C(C)[C@@H]1CC[C@]2(C)[C@H](C=CC3=C4C[C@@](C)(CO)CC[C@]4(C)CC[C@]32C)[C@@]1(C)CCCN | – | – | 1.46 | 2.91 µM | 1.7 µM | 3.28 | 1.72 | 3.17 | – | – | 1.53 | 2.97 | 1.69 | 3.34 | 1.62 | 3.07 | 1.63 | 3.07 | 1.56 | 3.04 |
| Cc1cc2nc3c4ccccc4n(CCN(C)C)c3nc2cc1C | 1.11 | 7.74 µM | 1.41 | 2.74 µM | 2.01 µM | 8.19 | 3.1 | 20.2 | 2.01 | 6.99 µM | 1.28 | 3.2 | 1.51 | 3.36 | 1.56 | 4.1 | 2.07 | 6.25 | 0.54 | 9.59 |
